Assay results taken from ChEMBL document CHEMBL1157642, “2-Amino-5-benzoyl-4-phenylthiazoles: Development of potent and selective adenosine A1 receptor antagonists” (Bioorg Med Chem, 2010).
Positions count from the first letter of the chain named.

Experiments:
Adenosine receptor A3 [1] = target: T1, Adenosine receptor A3 (Homo sapiens, UniProt P0DMS8); assay: biochemical
T1 sequence (P0DMS8 whole entry): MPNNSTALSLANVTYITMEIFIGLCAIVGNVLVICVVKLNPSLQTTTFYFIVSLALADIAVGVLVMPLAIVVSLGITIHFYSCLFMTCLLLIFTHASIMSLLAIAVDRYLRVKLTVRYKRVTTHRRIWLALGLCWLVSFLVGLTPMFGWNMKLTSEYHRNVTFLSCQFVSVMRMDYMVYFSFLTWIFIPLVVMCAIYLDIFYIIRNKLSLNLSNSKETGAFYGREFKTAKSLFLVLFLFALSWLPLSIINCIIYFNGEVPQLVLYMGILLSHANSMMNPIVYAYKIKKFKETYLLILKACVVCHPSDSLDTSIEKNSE

Adenosine receptor A1 [2] = target: T2, Adenosine receptor A1 (Rattus norvegicus, UniProt P25099)
T2 sequence (P25099 whole entry): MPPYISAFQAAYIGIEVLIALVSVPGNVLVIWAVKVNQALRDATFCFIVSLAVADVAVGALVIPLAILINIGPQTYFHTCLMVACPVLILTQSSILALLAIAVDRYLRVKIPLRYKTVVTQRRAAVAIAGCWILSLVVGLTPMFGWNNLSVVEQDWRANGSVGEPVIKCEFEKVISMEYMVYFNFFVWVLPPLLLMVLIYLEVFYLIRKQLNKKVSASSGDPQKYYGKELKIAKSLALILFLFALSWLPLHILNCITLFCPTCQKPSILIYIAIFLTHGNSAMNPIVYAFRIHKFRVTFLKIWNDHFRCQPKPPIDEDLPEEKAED

Adenosine receptor A2a [3] = target: T3, Adenosine receptor A2a (Rattus norvegicus, UniProt P30543)
Adenosine receptor A2b = target: T4, Adenosine receptor A2b (Homo sapiens, UniProt P29275); assay: Displacement of [3H]PSB-603 from human adenosine A2B receptor expressed in CHO cells; assay type: cell-based
T4 sequence (P29275 whole entry): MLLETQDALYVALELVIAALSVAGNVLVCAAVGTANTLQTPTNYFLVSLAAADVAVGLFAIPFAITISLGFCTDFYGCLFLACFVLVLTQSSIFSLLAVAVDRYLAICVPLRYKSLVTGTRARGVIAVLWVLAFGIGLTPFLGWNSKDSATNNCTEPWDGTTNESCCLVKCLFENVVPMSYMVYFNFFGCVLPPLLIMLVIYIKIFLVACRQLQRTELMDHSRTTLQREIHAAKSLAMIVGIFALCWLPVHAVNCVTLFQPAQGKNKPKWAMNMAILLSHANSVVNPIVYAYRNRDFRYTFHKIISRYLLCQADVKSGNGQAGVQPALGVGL

[4] = target: T5, Adenosine receptor A2b (Homo sapiens) (UniProt P29275); assay: Displacement of [3H]PSB-603 from human adenosine A2B receptor expressed in CHO cells at 1 uM; assay type: cell-based
T5 sequence (whole entry): T4 sequence (P29275 whole entry)

[5] = target: T6, Adenosine receptor A3 (Homo sapiens) (UniProt P0DMS8); assay: Displacement of [3H]PSB-11 from human adenosine A3 receptor expressed in CHO cells at 1 uM; assay type: cell-based
T6 sequence (whole entry): T1 sequence (P0DMS8 whole entry)

[6] = target: T7, Adenosine receptor A1 (Rattus norvegicus) (UniProt P25099); assay: Displacement of [3H]CCPA from adenosine A1 receptor in rat brain cortex membrane at 1 uM; assay type: cell membranes
T7 sequence (whole entry): T2 sequence (P25099 whole entry)

[7] = target: Adenosine receptor A2a (Rattus norvegicus) (UniProt P30543); assay: Displacement of [3H]MSX2 from adenosine A2A receptor in rat brain striatum membrane at 1 uM; assay type: cell membranes
Adenosine receptor A1 [8] = target: T8, Adenosine receptor A1 (Homo sapiens, UniProt P30542); assay: Displacement of [3H]CCPA from human adenosine A1 receptor expressed in CHO cells; assay type: cell-based
T8 sequence (P30542 whole entry): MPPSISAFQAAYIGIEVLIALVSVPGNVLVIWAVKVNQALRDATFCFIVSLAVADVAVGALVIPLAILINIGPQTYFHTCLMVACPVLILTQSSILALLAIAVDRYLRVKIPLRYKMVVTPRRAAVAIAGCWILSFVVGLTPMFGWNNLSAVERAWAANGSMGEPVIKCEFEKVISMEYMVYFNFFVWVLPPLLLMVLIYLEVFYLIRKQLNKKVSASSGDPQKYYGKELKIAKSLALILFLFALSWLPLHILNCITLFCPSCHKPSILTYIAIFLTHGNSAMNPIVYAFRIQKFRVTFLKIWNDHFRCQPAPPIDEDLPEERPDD

Adenosine receptor A1 [9] = target: T2, Adenosine receptor A1; assay: Displacement of [3H]DPCPX from adenosine A1 receptor in rat brain cortical membrane in absence of 100 uM GTP; assay type: cell membranes
Adenosine receptor A1 [10] = target: T2, Adenosine receptor A1; assay: Displacement of [3H]DPCPX from adenosine A1 receptor in rat brain cortical membrane in presence of 100 uM GTP; assay type: cell membranes
Adenosine receptor A2a [11] = target: Adenosine receptor A2a (Homo sapiens, UniProt P29274); assay: Displacement of [3H]MSX2 from human adenosine A2A receptor expressed in CHO cells; assay type: cell-based
[12] = target: T7, Adenosine receptor A1 (Rattus norvegicus); assay: Potency shift, ratio of IC50 for rat brain cortical membrane adenosine A1 receptor in presence of 100 uM GTP to C50 for rat brain cortical membrane adenosine A1 receptor in absence of 100 uM GTP
Adenosine receptor A2a [13] = target: T3, Adenosine receptor A2a; remark: listed apart in the source
Description: Binding affinity to rat adenosine A2A receptor

Adenosine receptor A1 [14] = target: T8, Adenosine receptor A1; assay: Binding affinity to human adenosine A1 receptor
Adenosine receptor A1 [15] = target: T2, Adenosine receptor A1; assay: Binding affinity to rat adenosine A1 receptor
Adenosine receptor A3 [16] = target: T1, Adenosine receptor A3; assay: Binding affinity to human adenosine A3 receptor
Adenosine receptor A1 [17] = target: T9, Adenosine receptor A1 (Cavia porcellus, UniProt P47745); assay: Binding affinity to guinea pig adenosine A1 receptor
T9 sequence (P47745 whole entry): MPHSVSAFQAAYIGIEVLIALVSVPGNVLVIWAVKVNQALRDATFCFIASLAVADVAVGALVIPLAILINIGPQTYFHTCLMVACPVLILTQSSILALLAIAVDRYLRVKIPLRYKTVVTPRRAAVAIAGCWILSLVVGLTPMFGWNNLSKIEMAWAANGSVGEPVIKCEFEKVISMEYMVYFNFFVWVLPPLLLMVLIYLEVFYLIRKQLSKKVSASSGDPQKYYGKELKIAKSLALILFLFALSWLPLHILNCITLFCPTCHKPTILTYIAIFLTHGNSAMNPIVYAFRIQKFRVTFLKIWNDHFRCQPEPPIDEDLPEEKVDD

Adenosine receptor A1 [18] = target: T10, Adenosine receptor A1 (Mus musculus, UniProt Q60612); assay: Binding affinity to mouse adenosine A1 receptor
T10 sequence (Q60612 whole entry): T2 sequence (P25099 whole entry) with V151E, D155A, R157I, D316E, L319I, E325D

Adenosine receptor A2a [19] = target: Adenosine receptor A2a (Cavia porcellus, UniProt P46616); assay: Binding affinity to guinea pig adenosine A2A receptor
Chain of Adenosine receptor A2a (Cavia porcellus, UniProt P46616) (P46616 whole entry): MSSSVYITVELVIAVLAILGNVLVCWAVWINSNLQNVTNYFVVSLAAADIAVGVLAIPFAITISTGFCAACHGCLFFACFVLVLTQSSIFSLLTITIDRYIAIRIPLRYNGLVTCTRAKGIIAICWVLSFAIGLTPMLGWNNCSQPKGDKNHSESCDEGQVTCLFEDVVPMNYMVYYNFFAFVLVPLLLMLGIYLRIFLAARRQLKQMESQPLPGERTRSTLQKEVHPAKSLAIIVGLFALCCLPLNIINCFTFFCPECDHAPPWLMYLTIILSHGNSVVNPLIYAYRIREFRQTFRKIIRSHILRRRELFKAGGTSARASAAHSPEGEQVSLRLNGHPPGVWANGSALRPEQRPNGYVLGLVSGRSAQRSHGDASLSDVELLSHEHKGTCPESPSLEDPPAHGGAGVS

T3 sequence (P30543 whole entry): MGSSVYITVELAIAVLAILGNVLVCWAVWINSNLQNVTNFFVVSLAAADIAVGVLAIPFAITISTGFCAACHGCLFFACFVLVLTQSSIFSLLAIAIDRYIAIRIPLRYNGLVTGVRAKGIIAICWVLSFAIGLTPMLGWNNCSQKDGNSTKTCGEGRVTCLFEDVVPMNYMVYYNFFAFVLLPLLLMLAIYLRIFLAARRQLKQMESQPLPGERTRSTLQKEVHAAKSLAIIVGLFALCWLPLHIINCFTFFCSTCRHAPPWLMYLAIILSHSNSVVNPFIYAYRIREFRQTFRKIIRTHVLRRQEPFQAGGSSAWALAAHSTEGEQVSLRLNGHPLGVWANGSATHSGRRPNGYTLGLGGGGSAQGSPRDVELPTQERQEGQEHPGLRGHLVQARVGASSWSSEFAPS
Chain of Adenosine receptor A2a (Rattus norvegicus) (P30543 whole entry): as above
Chain of Adenosine receptor A2a (Homo sapiens, UniProt P29274) (P29274 whole entry): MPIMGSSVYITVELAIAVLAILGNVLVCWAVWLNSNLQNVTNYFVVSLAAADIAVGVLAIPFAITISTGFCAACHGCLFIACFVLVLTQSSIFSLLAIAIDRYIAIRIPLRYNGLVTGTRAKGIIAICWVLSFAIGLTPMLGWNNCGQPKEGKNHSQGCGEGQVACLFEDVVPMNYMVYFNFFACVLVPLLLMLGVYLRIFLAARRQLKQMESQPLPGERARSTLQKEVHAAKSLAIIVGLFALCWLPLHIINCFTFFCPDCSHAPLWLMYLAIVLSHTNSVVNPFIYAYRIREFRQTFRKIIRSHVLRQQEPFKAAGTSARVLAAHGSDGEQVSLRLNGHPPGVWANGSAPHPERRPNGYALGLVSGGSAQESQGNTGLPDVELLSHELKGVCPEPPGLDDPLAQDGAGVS

Structure (SMILES) | Ki (Adenosine receptor A3 [1]) [nM] | Ki (Adenosine receptor A1 [2]) [nM] | Ki (Adenosine receptor A2a [3]) [nM] | Ki (Adenosine receptor A2b) [nM] | inhibition [4] [%] | inhibition [5] [%] | inhibition [6] [%] | inhibition [7] [%] | also measured
CCOC(=O)Nc1nc(-c2ccccc2)c(C(=O)c2ccccc2)s1 | 206 | 72.9 | 1640 | 391 | – | – | – | – | –
O=C(Nc1nc(-c2ccccc2)c(C(=O)c2ccccc2)s1)c1ccccc1 | 354 | 9.51 | 3030 | > 1000 | < 30 | – | – | – | –
CNc1nc(-c2ccccc2)c(C(=O)c2ccc(Cl)cc2)s1 | > 1000 | > 1000 | > 1000 | > 1000 | < 30 | < 30 | < 30 | < 30 | –
O=C(c1ccccc1)c1sc(Nc2ccccc2)nc1-c1ccccc1 | > 1000 | > 1000 | > 1000 | 337 | – | < 30 | < 30 | < 30 | –
CNc1nc(-c2ccccc2)c(C(=O)c2ccccc2)s1 | > 1000 | > 1000 | > 1000 | > 1000 | < 30 | < 30 | < 30 | < 30 | –
OC[C@H]1O[C@@H](n2cnc3c(NC4CCCC4)ncnc32)[C@H](O)[C@@H]1O [N6-CYCLOPENTYLADENOSINE] | 3250 | – | 2470 | – | – | – | – | – | –
O=C(Nc1nc(-c2ccccc2)c(C(=O)c2ccccc2)s1)c1ccco1 | 208 | 5.77 | 662 | > 1000 | < 30 | – | – | – | Ki (Adenosine receptor A1 [8]): 54.3 nM; IC50 (Adenosine receptor A1 [9]): 25.4 nM; IC50 (Adenosine receptor A1 [10]): 28.8 nM; Ki (Adenosine receptor A2a [11]): 348 nM; Ratio IC50 [12]: 1.2
CS(=O)(=O)c1ccc(C(=O)c2sc(NC(=O)c3ccccc3)nc2-c2ccccc2)cc1 | > 1000 | > 1000 | > 1000 | > 1000 | < 30 | < 30 | < 30 | < 30 | –
CCOC(=O)Nc1nc(-c2ccccc2)c(C(=O)c2ccc(OC)cc2)s1 | 98.8 | 69.9 | 1840 | > 1000 | < 30 | – | – | – | –
CCOC(=O)Nc1nc(-c2ccccc2)c(C(=O)c2ccc(Cl)cc2)s1 | 487 | 1000 | > 1000 | > 1000 | < 30 | – | 41 | < 30 | –
Cc1ccc(C(=O)c2sc(Nc3ccccc3)nc2-c2ccccc2)cc1 | > 1000 | > 1000 | > 1000 | > 1000 | < 30 | < 30 | < 30 | < 30 | –
CS(=O)(=O)c1ccc(C(=O)c2sc(Nc3ccccc3)nc2-c2ccccc2)cc1 | > 1000 | > 1000 | > 1000 | > 1000 | < 30 | < 30 | < 30 | < 30 | –
OC1CCC(Nc2nc(-c3ccccc3)nc3[nH]ccc23)CC1 (centres undefined) [DERENOFYLLINE] | – | – | – | – | – | – | – | – | Ki (Adenosine receptor A2a [13]): 501 nM; Ki (Adenosine receptor A1 [14]): 1 nM; Ki (Adenosine receptor A1 [15]): 2.51 nM; Ki (Adenosine receptor A3 [16]): 200 nM
Cc1ccc(C(=O)Nc2nc(-c3ccccc3)c(C(=O)c3ccccc3)s2)cc1 | > 1000 | > 1000 | > 1000 | > 1000 | 40 | < 30 | < 30 | < 30 | –
O=C(O)CCCn1nc(-c2c(-c3ccccc3)nn3ccccc23)ccc1=O | – | – | – | – | – | – | – | – | Ki (Adenosine receptor A2a [13]): 1200 nM; Ki (Adenosine receptor A1 [17]): 10 nM; Ki (Adenosine receptor A1 [14]): 12 nM; Ki (Adenosine receptor A1 [18]): 10.2 nM
Cc1ccc(C(=O)c2sc(NC(=O)c3ccccc3)nc2-c2ccccc2)cc1 | 2160 | 4.83 | > 1000 | > 1000 | < 30 | – | – | < 30 | Ki (Adenosine receptor A1 [8]): 57.4 nM; IC50 (Adenosine receptor A1 [9]): 22.1 nM; IC50 (Adenosine receptor A1 [10]): 22.3 nM; Ki (Adenosine receptor A2a [11]): 6250 nM; Ratio IC50 [12]: 0.99
CCCn1c(=O)c2[nH]c(C34CC5CC(CC3C5)C4)nc2n(CCC)c1=O [ROLOFYLLINE] | – | – | – | – | – | – | – | – | Ki (Adenosine receptor A2a [19]): 230 nM; Ki (Adenosine receptor A2a [13]): 170 nM
O=C(c1ccccc1)c1sc(NCCc2cccs2)nc1-c1ccco1 | – | – | – | – | – | – | – | – | Ki (Adenosine receptor A1 [14]): > 6700 nM
Cc1ccc(C(=O)Nc2nc(-c3ccccc3)c(C(=O)c3ccc(Cl)cc3)s2)cc1 | > 1000 | > 1000 | > 1000 | > 1000 | < 30 | < 30 | < 30 | < 30 | –
O=C(Nc1nc(-c2ccccc2)c(C(=O)c2ccc(Cl)cc2)s1)c1ccco1 | 619 | 12 | > 1000 | > 1000 | < 30 | – | – | < 30 | –
CNc1nc(-c2ccccc2)c(C(=O)c2ccc(OC)cc2)s1 | > 1000 | > 1000 | > 1000 | > 1000 | < 30 | < 30 | < 30 | < 30 | –
COc1ccc(C(=O)c2sc(Nc3ccccc3)nc2-c2ccccc2)cc1 | – | – | – | – | 39 | < 30 | < 30 | < 30 | –
COc1ccc(C(=O)c2sc(NC(=O)c3ccccc3)nc2-c2ccccc2)cc1 | 1000 | 7.15 | > 1000 | > 1000 | < 30 | 56 | – | < 30 | –
CCCn1c(=O)c2[nH]c(C34CCC(CCC(=O)O)(CC3)CC4)nc2n(CCC)c1=O [TONAPOFYLLINE] | – | – | – | – | – | – | – | – | Ki (Adenosine receptor A2a [13]): 2440 nM; Ki (Adenosine receptor A1 [15]): 1.3 nM; Ki (Adenosine receptor A3 [16]): 10000 nM
O=C(/C=C/c1c(-c2ccccc2)nn2ccccc12)N1CCCC[C@@H]1CCO [FK453] | – | – | – | – | – | – | – | – | IC50 (Adenosine receptor A2a [19]): 1180 nM; IC50 (Adenosine receptor A1 [17]): 0.56 nM; Ki (Adenosine receptor A1 [18]): 0.55 nM
